Test results: the NIST ThermoML archive (doi:10.1021/je0502344)
Numbers after ± are expanded uncertainties.

Experiments:
[1] = 101.33 kPa, Liquid
[2] = xn = mol fraction of the nth substance listed; details: 101.33 kPa, Liquid

CCCCCCCCCC=O [decanal]
[1]
Details | mass density [kg/m3] | viscosity [mPa·s]
298.15 K | 801.24 ± 10 | 1.56 ± 0.049
308.15 K | 789.05 ± 10 | 1.412 ± 0.044
318.15 K | 776.18 ± 11 | 1.281 ± 0.04

CCCCCCCCCC=O [decanal] + CCO
[2]
Details | mass density, 298.15 K [kg/m3] | mass density, 308.15 K [kg/m3] | mass density, 318.15 K [kg/m3] | viscosity, 298.15 K [mPa·s] | viscosity, 308.15 K [mPa·s] | viscosity, 318.15 K [mPa·s]
x1 = 0.1011 | 785.98 ± 2.9 | 778.7 ± 3.2 | 764.59 ± 3.5 | 1.128 ± 0.035 | 0.939 ± 0.03 | 0.808 ± 0.025
x1 = 0.2102 | 787.14 ± 2.9 | 779.48 ± 3.2 | 765.47 ± 3.5 | 1.174 ± 0.037 | 0.987 ± 0.031 | 0.854 ± 0.027
x1 = 0.3013 | 788.25 ± 2.9 | 780.24 ± 3.2 | 766.32 ± 3.5 | 1.213 ± 0.038 | 1.028 ± 0.032 | 0.895 ± 0.028
x1 = 0.412 | 789.78 ± 2.9 | 781.28 ± 3.2 | 767.48 ± 3.5 | 1.262 ± 0.04 | 1.081 ± 0.034 | 0.947 ± 0.03
x1 = 0.5105 | 791.31 ± 2.9 | 782.32 ± 3.2 | 768.64 ± 3.5 | 1.308 ± 0.041 | 1.131 ± 0.036 | 0.997 ± 0.031
x1 = 0.5836 | 792.55 ± 2.9 | 783.15 ± 3.2 | 769.58 ± 3.5 | 1.343 ± 0.042 | 1.169 ± 0.037 | 1.035 ± 0.033
x1 = 0.6889 | 794.48 ± 2.9 | 784.47 ± 3.2 | 771.05 ± 3.5 | 1.395 ± 0.044 | 1.226 ± 0.038 | 1.092 ± 0.034
x1 = 0.8008 | 796.73 ± 2.9 | 785.99 ± 3.2 | 772.76 ± 3.5 | 1.452 ± 0.045 | 1.29 ± 0.04 | 1.157 ± 0.036
x1 = 0.9145 | 799.23 ± 2.9 | 787.68 ± 3.2 | 774.65 ± 3.6 | 1.513 ± 0.047 | 1.358 ± 0.043 | 1.226 ± 0.038
x1 = 1 | 801.24 ± 3 | 789.05 ± 3.3 | 776.18 ± 3.6 | 1.56 ± 0.049 | 1.412 ± 0.044 | 1.281 ± 0.04

CCO [ethanol]
[1]
Details | mass density [kg/m3] | viscosity [mPa·s]
298.15 K | 785.08 ± 2.9 | 1.088 ± 0.034
308.15 K | 778.09 ± 3.2 | 0.897 ± 0.028
318.15 K | 763.91 ± 3.5 | 0.767 ± 0.024

CCO [ethanol] + CCCCCC=O
[2], x2 = 0
Details | mass density [kg/m3] | viscosity [mPa·s]
298.15 K | 785.08 ± 2.9 | 1.088 ± 0.034
308.15 K | 778.09 ± 3.2 | 0.897 ± 0.028
318.15 K | 763.91 ± 3.5 | 0.767 ± 0.024

CCO [ethanol] + CCCCCCCC=O
[2], x2 = 0
Details | mass density [kg/m3] | viscosity [mPa·s]
298.15 K | 785.08 ± 2.9 | 1.088 ± 0.034
308.15 K | 778.09 ± 3.2 | 0.897 ± 0.028
318.15 K | 763.91 ± 3.5 | 0.767 ± 0.024

CCO [ethanol] + CCCCCCCCC=O
[2], x2 = 0
Details | mass density [kg/m3] | viscosity [mPa·s]
298.15 K | 785.08 ± 2.9 | 1.088 ± 0.034
308.15 K | 778.09 ± 3.2 | 0.897 ± 0.028
318.15 K | 763.91 ± 3.5 | 0.767 ± 0.024

CCO [ethanol] + CCCCCCCCCC=O
[2], x2 = 0
Details | mass density [kg/m3] | viscosity [mPa·s]
298.15 K | 785.08 ± 2.9 | 1.088 ± 0.034
308.15 K | 778.09 ± 3.2 | 0.897 ± 0.028
318.15 K | 763.91 ± 3.5 | 0.767 ± 0.024

CCCCCC=O [hexanal]
[1]
Details | mass density [kg/m3] | viscosity [mPa·s]
298.15 K | 833.12 ± 3.1 | 0.805 ± 0.025
308.15 K | 818.94 ± 3.4 | 0.716 ± 0.023
318.15 K | 804.31 ± 3.7 | 0.639 ± 0.02

CCCCCC=O [hexanal] + CCO
[2]
Details | mass density, 298.15 K [kg/m3] | mass density, 308.15 K [kg/m3] | mass density, 318.15 K [kg/m3] | viscosity, 298.15 K [mPa·s] | viscosity, 308.15 K [mPa·s] | viscosity, 318.15 K [mPa·s]
x1 = 0.1094 | 788 ± 2.9 | 780.57 ± 3.2 | 766.36 ± 3.5 | 1.053 ± 0.033 | 0.875 ± 0.028 | 0.752 ± 0.024
x1 = 0.2049 | 791.01 ± 2.9 | 783.13 ± 3.2 | 768.9 ± 3.5 | 1.023 ± 0.032 | 0.857 ± 0.027 | 0.739 ± 0.023
x1 = 0.3226 | 795.33 ± 2.9 | 786.81 ± 3.2 | 772.53 ± 3.5 | 0.987 ± 0.031 | 0.834 ± 0.026 | 0.723 ± 0.023
x1 = 0.4037 | 798.69 ± 2.9 | 789.67 ± 3.3 | 775.36 ± 3.6 | 0.963 ± 0.03 | 0.819 ± 0.026 | 0.712 ± 0.022
x1 = 0.5027 | 803.22 ± 3 | 793.52 ± 3.3 | 779.17 ± 3.6 | 0.935 ± 0.029 | 0.801 ± 0.025 | 0.7 ± 0.022
x1 = 0.6207 | 809.24 ± 3 | 798.64 ± 3.3 | 784.23 ± 3.6 | 0.902 ± 0.028 | 0.78 ± 0.025 | 0.685 ± 0.022
x1 = 0.7108 | 814.29 ± 3 | 802.93 ± 3.3 | 788.47 ± 3.6 | 0.878 ± 0.028 | 0.764 ± 0.024 | 0.674 ± 0.021
x1 = 0.81 | 820.3 ± 3 | 808.04 ± 3.4 | 793.53 ± 3.7 | 0.852 ± 0.027 | 0.747 ± 0.024 | 0.662 ± 0.021
x1 = 0.9226 | 827.69 ± 3.1 | 814.32 ± 3.4 | 799.74 ± 3.7 | 0.824 ± 0.026 | 0.729 ± 0.023 | 0.648 ± 0.02
x1 = 1 | 833.12 ± 3.1 | 818.94 ± 3.4 | 804.31 ± 3.7 | 0.805 ± 0.025 | 0.716 ± 0.023 | 0.639 ± 0.02

CCCCCCCCC=O [nonanal]
[1]
Details | mass density [kg/m3] | viscosity [mPa·s]
298.15 K | 831.04 ± 5 | 1.392 ± 0.044
308.15 K | 818.01 ± 5.1 | 1.251 ± 0.039
318.15 K | 804.72 ± 5.3 | 1.127 ± 0.035

CCCCCCCCC=O [nonanal] + CCO
[2]
Details | mass density, 298.15 K [kg/m3] | mass density, 308.15 K [kg/m3] | mass density, 318.15 K [kg/m3] | viscosity, 298.15 K [mPa·s] | viscosity, 308.15 K [mPa·s] | viscosity, 318.15 K [mPa·s]
x1 = 0.1034 | 787.7 ± 2.9 | 780.37 ± 3.2 | 766.24 ± 3.5 | 1.116 ± 0.035 | 0.928 ± 0.029 | 0.798 ± 0.025
x1 = 0.2039 | 790.72 ± 2.9 | 782.99 ± 3.2 | 768.92 ± 3.5 | 1.144 ± 0.036 | 0.96 ± 0.03 | 0.83 ± 0.026
x1 = 0.293 | 793.79 ± 2.9 | 785.65 ± 3.2 | 771.64 ± 3.5 | 1.169 ± 0.037 | 0.989 ± 0.031 | 0.859 ± 0.027
x1 = 0.3939 | 797.7 ± 2.9 | 789.05 ± 3.3 | 775.11 ± 3.6 | 1.199 ± 0.038 | 1.023 ± 0.032 | 0.893 ± 0.028
x1 = 0.5045 | 802.52 ± 3 | 793.24 ± 3.3 | 779.4 ± 3.6 | 1.232 ± 0.039 | 1.061 ± 0.033 | 0.931 ± 0.029
x1 = 0.5943 | 806.85 ± 3 | 797 ± 3.3 | 783.24 ± 3.6 | 1.26 ± 0.04 | 1.093 ± 0.034 | 0.964 ± 0.03
x1 = 0.7116 | 813.07 ± 3 | 802.4 ± 3.3 | 788.76 ± 3.6 | 1.297 ± 0.041 | 1.137 ± 0.036 | 1.009 ± 0.032
x1 = 0.7855 | 817.31 ± 3 | 806.08 ± 3.3 | 792.53 ± 3.6 | 1.32 ± 0.041 | 1.165 ± 0.037 | 1.038 ± 0.033
x1 = 0.898 | 824.25 ± 3.1 | 812.11 ± 3.4 | 798.69 ± 3.7 | 1.357 ± 0.043 | 1.209 ± 0.038 | 1.084 ± 0.034
x1 = 1 | 831.04 ± 3.1 | 818.01 ± 3.4 | 804.72 ± 3.7 | 1.392 ± 0.044 | 1.251 ± 0.039 | 1.127 ± 0.035

CCCCCCCC=O [octanal]
[1]
Details | mass density [kg/m3] | viscosity [mPa·s]
298.15 K | 821.07 ± 3 | 1.2 ± 0.038
308.15 K | 807.34 ± 3.4 | 1.074 ± 0.034
318.15 K | 793.85 ± 3.7 | 0.965 ± 0.03

CCCCCCCC=O [octanal] + CCO
[2]
Details | mass density, 298.15 K [kg/m3] | mass density, 308.15 K [kg/m3] | mass density, 318.15 K [kg/m3] | viscosity, 298.15 K [mPa·s] | viscosity, 308.15 K [mPa·s] | viscosity, 318.15 K [mPa·s]
x1 = 0.1077 | 787.23 ± 2.9 | 779.83 ± 3.2 | 765.7 ± 3.5 | 1.1 ± 0.035 | 0.915 ± 0.029 | 0.786 ± 0.025
x1 = 0.2019 | 789.45 ± 2.9 | 781.64 ± 3.2 | 767.54 ± 3.5 | 1.11 ± 0.035 | 0.93 ± 0.029 | 0.803 ± 0.025
x1 = 0.3178 | 792.62 ± 2.9 | 784.21 ± 3.2 | 770.18 ± 3.5 | 1.122 ± 0.035 | 0.95 ± 0.03 | 0.825 ± 0.026
x1 = 0.3977 | 795.08 ± 2.9 | 786.22 ± 3.2 | 772.23 ± 3.5 | 1.131 ± 0.036 | 0.964 ± 0.03 | 0.84 ± 0.026
x1 = 0.4952 | 798.4 ± 2.9 | 788.92 ± 3.3 | 774.99 ± 3.6 | 1.142 ± 0.036 | 0.981 ± 0.031 | 0.859 ± 0.027
x1 = 0.6115 | 802.81 ± 3 | 792.5 ± 3.3 | 778.66 ± 3.6 | 1.155 ± 0.036 | 1.001 ± 0.031 | 0.883 ± 0.028
x1 = 0.7003 | 806.51 ± 3 | 795.5 ± 3.3 | 781.74 ± 3.6 | 1.165 ± 0.037 | 1.018 ± 0.032 | 0.901 ± 0.028
x1 = 0.798 | 810.9 ± 3 | 799.07 ± 3.3 | 785.39 ± 3.6 | 1.176 ± 0.037 | 1.036 ± 0.033 | 0.921 ± 0.029
x1 = 0.9089 | 816.3 ± 3 | 803.46 ± 3.3 | 789.88 ± 3.6 | 1.189 ± 0.037 | 1.057 ± 0.033 | 0.945 ± 0.03
x1 = 1 | 821.07 ± 3 | 807.34 ± 3.4 | 793.85 ± 3.7 | 1.2 ± 0.038 | 1.074 ± 0.034 | 0.965 ± 0.03
